The values below come from BindingDB's records for doi:10.1021/jm00129a004 (Bristol Myers Squibb, 1989).

Usually pIC50 stands for the negative decadic logarithm of the IC50, by convention in mol/L. The low end stands for a high IC50, the high end for a low IC50.

pIC50: −log10 of the molar value.

For the experiment, the target named is HMG-CoA reductase (Rattus norvegicus). The experiment is described as follows: In vitro inhibition of rat liver microsomal HMG-CoA reductase activity. For orientation: Liver microsomes are vesicles of endoplasmic reticulum, rich in cytochrome P450 enzymes.

`Cn1nnnc1C(/C=C/[C@H]1C[C@H](O)CC(=O)O1)=C(c1ccc(F)cc1)c1ccc(F)cc1`: the pIC50 was 7.72.

The molecule `Cn1nnnc1C(/C=C/[C@@H]1C[C@@H](O)CC(=O)O1)=C(c1ccc(F)cc1)c1ccc(F)cc1` [6-[4,4-Bis-(4-fluoro-phenyl)-3-(1-methyl-1H-tetrazol-5-yl)-buta-1,3-dienyl]-4-hydroxy-tetrahydro-pyran-2-one (BMY 22089)] gave a pIC50 of 7.37.
